Reference: patent US20040116346A1, “Affinity small molecules for the EPO receptor” (priority 2002, published 2004)

Legend:
[1] = tested on: TF-1 and UT-7 cells; test: biological testing in cell lines (cell proliferation assay and cell signaling assay); assay type: cell-based
Description: Compounds identified in the initial screen were further tested for their biological activity in two assays: a cell proliferation assay and a cell signaling assay in TF-1 and UT-7 cells. The hit rate in cell proliferation was 0.16%; hit rate in cell signaling was 0.25%.
At the end of the biological testing in cell lines TF-1 and UT-7, E4, E5, E5 analogs and E6 molecules were some of the compounds identified as showing the best activity.
Compounds identified in the initial screen were further tested for their biological activity in two assays: a cell proliferation assay and a cell signaling assay in TF-1 cells. The hit rate in cell proliferation was 0.16%; hit rate in cell signaling was 0.25%.
At the end of the biological testing in cell line, E4, E5, E5 analog, and E6 molecules were some of the compounds identified as showing the best activity.

[2] = tested on: TF-1 cells; test: Cell proliferation; assay type: cell-based; details: TF-1 cells stimulated for 96 hours
Protocol: TF-1 cells were stimulated for 96 hours with different non-peptide EPO-R modulators, and it was observed that the non-peptide EPO binding molecules stimulated cellular proliferation in dose-responsive manner and to the extent of the natural hormone.

[3] = tested on: carboplatin-treated 8 week old C57BL mice; test: Carboplatin induced anemia model (hematocrit); assay type: in vivo, mouse; details: mouse, in vivo
Protocol: Mice were treated with Carboplatin agent (available from Sigma, used regularly in chemotherapy) and a drop in hematocrit was induced. […] (FIGS. 9-11)
Determination of Effect of Non-peptide EPO-R Binding Small Molecule on Hematocrit in Carboplatin-Induced Anemia in 8 Week C57BI Male Mice
Preparation of injection solutions: Vehicle—Saline with 0.1 mg/mL BSA; Add 30 mg of BSA to 300 mL Saline; Vacuum filter under sterile conditions in laminar flow hood; Aliquot the saline (0.1 mg/mL BSA) solution into mini-sorp tubes. At least 41×7 mL aliquots should be prepared. Place caps on the tubes and store refrigerated at 4° C.;
Carboplatin—Dose of 120 mg/kg: Calculations for single injection given to 36 male mice (8 wks old˜25 g): […]×0.025 kg×36 mice=108 mg; Injections are delivered i.p. in a volume of 0.5 cc/mouse=0.5 cc/mouse×36 mice=18 cc; Carboplatin at 6 mg/mL for 36 mice: 108 mg/18 cc.; 120 mg/20 cc; On day of injection, add 120 mg carboplatin (Sigma #C2538) to 20 cc saline in a 100 cc beaker containing a stirring bar. Cover beaker with parafilm. Mix until the carboplatin has completely dissolved.
11 nmole/kg/mouse/day×0.025 kg×12 mice=3.3 nmoles/day; Injections are delivered i.p. in a volume of 0.5 cc/mouse/day=0.5 cc/mouse/day×12 mice=6 cc/day; non-peptide EPO-R binding small molecule for […]: 3.3 nmoles/6 cc each day: 3.85 nmole/7 cc each day; non-peptide EPO-R binding small molecule aliquot at 2 mM=2 nmole/uL; 3.85 nmole per day in 7 cc (0.55 nmole/mL); Therefore: 3.85 nmole divided by 2 nmole/uL stock=1.925 uL at 2 mM; Prepare in advance at least 10 aliquots of non-peptide EPO-R binding small molecule at 2 mM in small microfuge tubes, each with a volume of 2 uL. Freeze these aliquots; On each day of injections, add 1 thawed aliquot of the non-peptide EPO-R binding small molecule at 2 mM containing a 2 uL volume to a tube containing 7 cc of sterile saline (0.1 mg/mL BSA). […]

Cc1ccc(Cl)cc1Nc1nc2nc(C)c(NCC3CC3)cn2n1 [Compound E5]
maximum activity compared to EPO natural hormone ([1]; cell line (TF-1 cells)): maximum activity comparable to that of the maximum activity of EPO | maximum activity compared to EPO natural hormone ([1]; cell lines TF-1 and UT-7, in the presence of low levels of EPO): maximum activity comparable to that of the maximum activity of EPO | cellular proliferation [2]: proliferative effect | hematocrit levels in animals treated with carboplatin [3]: restore hematocrit levels
